Source: USRE39608E1, “Substituted benzimidazoles and their use as PARP inhibitors” (Abbott GmbH & Co. KG, priority 1998, dated 2007)
Counter-ions that a name gives are not always drawn.

How the values were obtained:
[1] = Determination of the water solubility; type: physicochemical; conditions: pH of from 5 to 6 with sodium acetate solution
Description: A compound to be measured was dissolved directly in a specified volume of water and the resulting solution was brought to a pH of from 5 to 6 with a sodium acetate solution so that the concentration of the active compound to be tested was reached. If the test substance was not present as a water-soluble salt, it was dissolved in a very small amount of dimethyl sulfoxide and then diluted with water (final concentration of dimethyl sulfoxide≦1%), after which the pH was adjusted here too. Here, Example 1 according to the invention gave a solubility of >0.5%.

[2] = S. Cuzzocrea et al., Br. J. Pharmacol. 121 (1997); cited from earlier work

Row | solubility [1] | SMILES | protective effects in a model for circulatory shock [2]
1 | > 0.5% | NC(=O)c1cccc2[nH]c(C3CCNCC3)nc12 [Example 1, 2-(Piperidin-4-yl)benzimidazole-4-carboxamide.2 HCl] | –
2 | – | NC(=O)c1cccc(N)c1 [3-aminobenzamide] | protective effects
